How the values were obtained:
Format in all cases: ADME, organism-based
Design in all cases: dose 5 mg/kg, route intravenous
[1] = tested on: Brain; assay: Drug level in mouse brain homogenate assessed as compound recovery after 4 hr post dose measured on basis of intraday target compound concentration of 3000 ng/g of brain tissue at 5 mg/kg, iv bolus dose by HPLC; settings: in vivo
[2] = tested on: Brain; assay: Drug level in mouse brain homogenate assessed as compound recovery after 4 hr post dose measured on basis of intraday target compound concentration of 375 ng/g of brain tissue at 5 mg/kg, iv bolus dose by HPLC; settings: in vivo
[3] = tested on: Brain; assay: Drug level in mouse brain homogenate assessed as compound recovery after 4 hr post dose measured on basis of intraday target compound concentration of 93.8 ng/g of brain tissue at 5 mg/kg, iv bolus dose by HPLC; settings: in vivo
[4] = Ratio of drug level in brain to plasma in Swiss mouse at 5 mg/kg, iv

For COLISTIN, the Activity [1] was 96%, the Activity [2] was 86% and the Activity [3] was 87%. The Ratio [4] was 0.02.

From ChEMBL document CHEMBL1649240, “Brain penetration of colistin in mice assessed by a novel high-performance liquid chromatographic technique” (Antimicrob Agents Chemother, 2009)
